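In this assay, cells in 96-well plates receive the compound at five concentrations for 48 hours. Endpoints are linearly interpolated between the surrounding concentrations. GI50 marks 50% less growth.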 Calls of active or inactive are those of the source. Cut-off read from the data, not from the text of the source: active = GI50 up to about 1.1 µM and inactive = higher.
Assays:
Test in all cases: DTP human tumour cell line panel, 48 h
MCF7 = tested on: MCF7
MDA-MB-435 = tested on: MDA-MB-435
PC-3 = tested on: PC-3
NCI/ADR-RES = tested on: NCI/ADR-RES
UACC-62 = tested on: UACC-62
CCRF-CEM = tested on: CCRF-CEM
KM12 = tested on: KM12
HCT-116 = tested on: HCT-116
MDA-MB-231 = tested on: MDA-MB-231
SK-MEL-28 = tested on: SK-MEL-28
OVCAR-5 = tested on: OVCAR-5
SK-MEL-5 = tested on: SK-MEL-5
Hs-578T = tested on: Hs-578T
NCI-H522 = tested on: NCI-H522
OVCAR-3 = tested on: OVCAR-3
HCT-15 = tested on: HCT-15
HT-29 = tested on: HT-29
OVCAR-8 = tested on: OVCAR-8
CAKI-1 = tested on: CAKI-1
SK-OV-3 = tested on: SK-OV-3
COLO 205 = tested on: COLO 205
SR = tested on: SR
EKVX = tested on: EKVX
SN12C = tested on: SN12C
786-0 = tested on: 786-0
MOLT-4 = tested on: MOLT-4
K562 = tested on: K562
RPMI-8226 = tested on: RPMI-8226
HL-60 = tested on: HL-60
IGROV-1 = tested on: IGROV-1
RXF 393 = tested on: RXF 393
UO-31 = tested on: UO-31
SF-295 = tested on: SF-295
DU-145 = tested on: DU-145
SNB-19 = tested on: SNB-19
U-251 = tested on: U-251
BT-549 = tested on: BT-549
MDA-N = tested on: MDA-N
NCI-H460 = tested on: NCI-H460
A549 = tested on: A549
T47D = tested on: T47D
TK-10 = tested on: TK-10
A498 = tested on: A498
OVCAR-4 = tested on: OVCAR-4
SF-268 = tested on: SF-268
LOX IMVI = tested on: LOX IMVI
UACC-257 = tested on: UACC-257
ACHN = tested on: ACHN
HOP-92 = tested on: HOP-92
HOP-62 = tested on: HOP-62
M14 = tested on: M14
NCI-H23 = tested on: NCI-H23
SW-620 = tested on: SW-620
Malme-3M = tested on: Malme-3M
SNB-75 = tested on: SNB-75
SK-MEL-2 = tested on: SK-MEL-2
HCC 2998 = tested on: HCC 2998
SF-539 = tested on: SF-539
NCI-H226 = tested on: NCI-H226

CC(Br)CN(CC(C)Br)c1ccc2c(c1)Cc1ccccc1-2 (stereo not given)
GI50 (MCF7): 6.49 µM (inactive) | GI50 (MDA-MB-435): 13.7 µM (inactive) | GI50 (PC-3): 10.8 µM (inactive) | GI50 (NCI/ADR-RES): 13.5 µM (inactive) | GI50 (UACC-62): 11.9 µM (inactive) | GI50 (CCRF-CEM): 2.03 µM (inactive) | GI50 (KM12): 16.5 µM (inactive) | GI50 (HCT-116): 11.6 µM (inactive) | GI50 (MDA-MB-231): 13.9 µM (inactive) | GI50 (SK-MEL-28): 18.9 µM (inactive) | GI50 (OVCAR-5): 18.9 µM (inactive) | GI50 (SK-MEL-5): 12.7 µM (inactive) | GI50 (Hs-578T): 13.4 µM (inactive) | GI50 (NCI-H522): 6.9 µM (inactive) | GI50 (OVCAR-3): 11.7 µM (inactive) | GI50 (HCT-15): 13.1 µM | GI50 (HT-29): 13 µM (inactive) | GI50 (OVCAR-8): 9.98 µM (inactive) | GI50 (CAKI-1): 9.2 µM (inactive) | GI50 (SK-OV-3): 16 µM (inactive) | GI50 (COLO 205): 14.5 µM (inactive) | GI50 (SR): 1.76 µM (inactive) | GI50 (EKVX): 13.8 µM (inactive) | GI50 (SN12C): 11.4 µM (inactive) | GI50 (786-0): 11.1 µM (inactive) | GI50 (MOLT-4): 2.34 µM (inactive) | GI50 (K562): 5.92 µM (inactive) | GI50 (RPMI-8226): 3.27 µM (inactive) | GI50 (HL-60): 1.73 µM (inactive) | GI50 (IGROV-1): 6.93 µM (inactive) | GI50 (RXF 393): 14.3 µM (inactive) | GI50 (UO-31): 12.4 µM (inactive) | GI50 (SF-295): 10.7 µM (inactive) | GI50 (DU-145): 11.1 µM (inactive) | GI50 (SNB-19): 13.6 µM (inactive) | GI50 (U-251): 10.7 µM (inactive) | GI50 (BT-549): 16.7 µM (inactive) | GI50 (MDA-N): 15.2 µM (inactive) | GI50 (NCI-H460): 2.22 µM (inactive) | GI50 (A549): 12.1 µM (inactive) | GI50 (T47D): 10.1 µM (inactive) | GI50 (TK-10): 12.3 µM (inactive) | GI50 (A498): 13 µM (inactive) | GI50 (OVCAR-4): 13.1 µM (inactive) | GI50 (SF-268): 10.2 µM (inactive) | GI50 (LOX IMVI): 8.11 µM (inactive) | GI50 (UACC-257): 14.1 µM (inactive) | GI50 (ACHN): 6.64 µM (inactive) | GI50 (HOP-92): 7.62 µM (inactive) | GI50 (HOP-62): 11.7 µM (inactive) | GI50 (M14): 11.6 µM (inactive) | GI50 (NCI-H23): 12 µM (inactive) | GI50 (SW-620): 14.2 µM (inactive) | GI50 (Malme-3M): 11.7 µM (inactive) | GI50 (SNB-75): 12.2 µM (inactive) | GI50 (SK-MEL-2): 15.7 µM (inactive)

CCN(CC)CCNc1ccc2ncn3c4c(OC)cccc4c(=O)c1c23
GI50 (MCF7): 2.47 µM (inactive) | GI50 (MDA-MB-435): 6.58 µM (inactive) | GI50 (PC-3): 3.97 µM (inactive) | GI50 (NCI/ADR-RES): 1.79 µM (inactive) | GI50 (UACC-62): 6.68 µM (inactive) | GI50 (CCRF-CEM): 1.73 µM (inactive) | GI50 (KM12): 4.26 µM (inactive) | GI50 (HCT-116): 0.54 µM (active) | GI50 (MDA-MB-231): 7.55 µM (inactive) | GI50 (SK-MEL-28): 6.47 µM (inactive) | GI50 (HCC 2998): 4.94 µM (inactive) | GI50 (SK-MEL-5): 2.38 µM (inactive) | GI50 (Hs-578T): 11.6 µM (inactive) | GI50 (NCI-H522): 4.4 µM (inactive) | GI50 (OVCAR-3): 0.863 µM (active) | GI50 (HCT-15): 3.85 µM | GI50 (HT-29): 4.04 µM (inactive) | GI50 (OVCAR-8): 6.38 µM (inactive) | GI50 (CAKI-1): 4.89 µM (inactive) | GI50 (SF-539): 3.78 µM (inactive) | GI50 (SK-OV-3): 10.9 µM (inactive) | GI50 (COLO 205): 1.91 µM (inactive) | GI50 (SR): 3.4 µM (inactive) | GI50 (EKVX): 4.15 µM (inactive) | GI50 (SN12C): 2.93 µM (inactive) | GI50 (786-0): 4.83 µM (inactive) | GI50 (MOLT-4): 0.912 µM (active) | GI50 (K562): 2.67 µM (inactive) | GI50 (IGROV-1): 5.41 µM (inactive) | GI50 (RXF 393): 2.45 µM (inactive) | GI50 (UO-31): 4.38 µM (inactive) | GI50 (SF-295): 10.4 µM (inactive) | GI50 (DU-145): 4.5 µM (inactive) | GI50 (SNB-19): 6.15 µM (inactive) | GI50 (U-251): 4.89 µM (inactive) | GI50 (BT-549): > 10 µM (inactive) | GI50 (MDA-N): 4.27 µM (inactive) | GI50 (NCI-H460): 3 µM (inactive) | GI50 (A549): 4.12 µM (inactive) | GI50 (NCI-H226): 5.86 µM (inactive) | GI50 (T47D): 7.66 µM (inactive) | GI50 (TK-10): 12.2 µM (inactive) | GI50 (A498): 13.9 µM (inactive) | GI50 (OVCAR-4): 2.93 µM (inactive) | GI50 (SF-268): 3.92 µM (inactive) | GI50 (UACC-257): 21.1 µM (inactive) | GI50 (ACHN): 3.38 µM (inactive) | GI50 (HOP-92): 4.27 µM (inactive) | GI50 (HOP-62): 6.67 µM (inactive) | GI50 (M14): 6.34 µM (inactive) | GI50 (NCI-H23): 5.46 µM (inactive) | GI50 (SW-620): 1.08 µM (active) | GI50 (Malme-3M): 6.76 µM (inactive) | GI50 (SNB-75): 11.3 µM (inactive)
